According to patent US11186583B2, “5-alkylthio-7-[(4-arylbenzyl)amino]-1(2)H-pyrazolo[4,3-d]pyrimidines for treatment of lymphoma” (UNIVERZITA PALACKEHO V OLOMOUCI, priority 2018, dated 2021):

Assays:
Format in all cases: cell-based
[1] = test system: HT (diffuse large B-cell lymphoma, subtype—germinal center B-cell); assay: MTT cytotoxicity assay, HT lymphoma cell line; details: Homo sapiens, 72 h, HT cells, three days, read-out: Lymphoma cell lines GI50, HT
Excerpt: (§1) Cytotoxicity of the compounds is the major property determining their anti-lymphoma efficacy in vitro. One of the parameters used, as the basis for cytotoxicity assays, is the metabolic activity of viable cells. For example 2, a microtiter assay, which uses (3-(4,5-dimethylthiazol-2-yl)-2,5-diphenyltetrazolium bromide (MTT), is widely used to quantitate cell proliferation and cytotoxicity. This assay is widely used in drug screening programs and in chemosensitivity testing. Because only metabolically active living cells reduce MTT to correspond purple formazan dye, these assays detect viable cells exclusively. The quantity of reduced MTT corresponds to the number of vital cells in the culture.
(§2) The compounds were assayed using the following lymphoma cell lines: HT (diffuse large B-cell lymphoma, subtype—germinal center B-cell), OCI-LY2 (diffuse large B-cell lymphoma, subtype—germinal center B-cell), MINO (mantle cell lymphoma). All cell lines were grown in RPMI medium supplemented with fetal bovine serum and glutamine and maintained at 37° C. in a humidified atmosphere with 5% CO2. For cytotoxicity assays, 5000-10000 cells were seeded into each well of 96 well plate, allowed to stabilize for at least 8 h and then tested compounds were added at various concentrations ranging from 100 to 0.01 μM in triplicates. After three days, MTT solution (5 mg/ml; Sigma, St. Louis, USA) was added to cells and medium was replaced with DMSO after five hours. The absorbance was measured at 620 nm by employing a microplate reader. MTT assays were repeated 3 times for each drug application and untreated cells were used as reference. The GI50 values, drug concentrations lethal to 50% of the cells, were calculated from the obtained dose response curves.

[2] = test system: OCI-LY2 (diffuse large B-cell lymphoma, subtype—germinal center B-cell); assay: MTT cytotoxicity assay, OCI-LY2 lymphoma cell line; details: 72 h, OCI-LY2 cells, three days, read-out: Lymphoma cell lines GI50, OCI-LY2
Excerpt: as §1, §2

[3] = test system: MINO (mantle cell lymphoma); assay: MTT cytotoxicity assay, MINO lymphoma cell line; details: Homo sapiens, 72 h, MINO cells, three days, read-out: Lymphoma cell lines GI50, MINO
Excerpt: as §1, §2

| SMILES | GI50 [1] [nM] | GI50 [2] [nM] | GI50 [3] [nM] |
| --- | --- | --- | --- |
| CC(C)c1n[nH]c2c(NCc3ccc(-c4ccccn4)cc3)nc(SC3CCCC3O)nc12 (stereo not drawn) [Compound 4.16, 5-(2-Hydroxycyclopentyl)thio-3-isopropyl-7-[4-(2-pyridyl)benzyl]amino-1(2)H-pyrazolo[4,3-d]pyrimidine] | 567 | 373 | 450 |
| CC(C)c1n[nH]c2c(NCc3ccc(-c4ccccn4)cc3)nc(SCC(O)CO)nc12 (stereo not drawn) [Compound 4.18, 5-(2,3-Dihydroxy-1-propyl)thio-3-isopropyl-7-[4-(2-pyridyl)benzyl]amino-1(2)H-pyrazolo[4,3-d]pyrimidine] | 21 | 22 | 10 |
| CC(C)c1n[nH]c2c(NCc3ccc(-c4ccccn4)cc3)nc(SCCN(C)C)nc12 [Compound 4.19] | 54 | 61 | 93 |
| CC(C)c1n[nH]c2c(NCc3ccc(-c4ccccn4)cc3)nc(SCCn3ccnc3)nc12 [Compound 4.26, 5-[2-(1-Imidazolyl)-1-ethyl]thio-3-isopropyl-7-[4-(2-pyridyl)benzyl]amino-1(2)H-pyrazolo[4,3-d]pyrimidine] | 155 | 145 | 135 |
| CCC(CO)Sc1nc(NCc2ccc(-c3ccccn3)cc2)c2[nH]nc(C(C)C)c2n1 (stereo not drawn) [Compound 4.5, 5-(1-Hydroxy-2-butyl)thio-3-isopropyl-7-[4-(2-pyridyl)benzyl]amino-1(2)H-pyrazolo[4,3-d]pyrimidin] | 255 | 181 | 119 |
| CC(C)c1n[nH]c2c(NCc3ccc(-c4ccccn4)cc3)nc(SCCCO)nc12 [Compound 4.8, 5-(3-Hydroxy-1-propyl)thio-3-isopropyl-7-[4-(2-pyridyl)benzyl]amino-1(2)H-pyrazolo[4,3-d]pyrimidine] | 109 | 102 | 89 |
| CC(C)c1n[nH]c2c(NCc3ccc(-c4ccccn4)cc3)nc(SCC(C)(C)N)nc12 [Compound 4.13, 5-(2-Amino-2-methyl-1-propyl)thio-3-isopropyl-7-[4-(2-pyridyl)benzyl]amino-1(2)H-pyrazolo[4,3-d]pyrimidin] | 85 | 100 | 64 |
| CC(C)c1n[nH]c2c(NCc3ccc(-c4ccccn4)cc3)nc(SCC3CNC(=O)O3)nc12 (stereo not drawn) [Compound 4.28, 5-[(Oxazolidin-2-on-5-yl)methyl]thio-3-isopropyl-7-[4-(2-pyridyl)benzyl]amino-1(2)H-pyrazolo[4,3-d]pyrimidine] | 80 | 53 | 69 |
| CC(C)c1n[nH]c2c(NCc3ccc(-c4ccccn4)cc3)nc(SCCNC(N)=O)nc12 [Compound 4.11, 5-(2-Ureido-1-ethyl)thio-3-isopropyl-7-[4-(2-pyridyl)benzyl]amino-1(2)H-pyrazolo[4,3-d]pyrimidine] | 240 | 198 | 136 |
| COCSc1nc(NCc2ccc(-c3ccccn3)cc2)c2[nH]nc(C(C)C)c2n1 [Compound 4.33, 5-(Methoxymethyl)thio-3-isopropyl-7-[4-(2-pyridyl)benzyl]amino-1(2)H-pyrazolo[4,3-d]pyrimidine] | 340 | 285 | 243 |
| CC(C)c1n[nH]c2c(NCc3ccc(-c4ccccn4)cc3)nc(SCC(O)CN3CCNCC3)nc12 (stereo not drawn) [Compound 4.25, 5-[3-(1-Piperazinyl)-2-hydroxy-1-propyl]thio-3-isopropyl-7-[4-(2-pyridyl)benzyl]amino-1(2)H-pyrazolo[4,3-d]pyrimidine] | 332 | 435 | 767 |
| C=CCSc1nc(NCc2ccc(-c3ccccn3)cc2)c2[nH]nc(C(C)C)c2n1 [Compound 4.2, 5-(Prop-2-en-1-yl)thio-3-isopropyl-7-[4-(2-pyridyl)benzyl]amino-1(2)H-pyrazolo[4,3-d]pyrimidine] | 1000 | 858 | 923 |
| CC(C)c1n[nH]c2c(NCc3ccc(-c4ccccn4)cc3)nc(SCC(C)(C)O)nc12 [Compound 4.17, 5-(2-Hydroxy-2-methyl-1-propyl)thio-3-isopropyl-7-[4-(2-pyridyl)benzyl]amino-1(2)H-pyrazolo[4,3-d]pyrimidine] | 507 | 610 | 477 |
| CC(C)c1n[nH]c2c(NCc3ccc(-c4ccccn4)cc3)nc(SCCNC(=N)N)nc12 [Compound 4.10, 5-(2-Guanidino-1-ethyl)thio-3-isopropyl-7-[4-(2-pyridyl)benzyl]amino-1(2)H-pyrazolo[4,3-d]pyrimidine] | 390 | 812 | 390 |
| CC(O)CSc1nc(NCc2ccc(-c3ccccn3)cc2)c2[nH]nc(C(C)C)c2n1 (stereo not drawn) [Compound 4.3, 5-(2-Hydroxy-1-propyl)thio-3-isopropyl-7-[4-(2-pyridyl)benzyl]amino-1(2)H-pyrazolo[4,3-d]pyrimidine] | 62 | 152 | 81 |
| CC(C)c1n[nH]c2c(NCc3ccc(-c4ccccn4)cc3)nc(SCCO)nc12 [Compound 4.1, 5-(2-Hydroxy-1-ethyl)thio-3-isopropyl-7-[4-(2-pyridyl)benzyl]amino-1(2)H-pyrazolo[4,3-d]pyrimidine] | 48 | 50 | 40 |
| CC(C)c1n[nH]c2c(NCc3ccc(-c4ccccn4)cc3)nc(SC3CCCCC3N)nc12 (stereo not drawn) [Compound 4.31, 5-(2-Aminocyclohexyl)thio-3-isopropyl-7-[4-(2-pyridyl)benzyl]amino-1(2)H-pyrazolo[4,3-d]pyrimidine] | 139 | 136 | 157 |
| CC(C)c1n[nH]c2c(NCc3ccc(-c4ccccn4)cc3)nc(SCC(O)C(F)(F)F)nc12 (stereo not drawn) [Compound 4.32, 5-(3,3,3-Trifluoro-2-hydroxy-1-propyl)thio-3-isopropyl-7-[4-(2-pyridyl)benzyl]amino-1(2)H-pyrazolo[4,3-d]pyrimidine] | 690 | 585 | 641 |
| CSCCSc1nc(NCc2ccc(-c3ccccn3)cc2)c2[nH]nc(C(C)C)c2n1 [Compound 4.30, 5-(2-Methylthio-1-ethyl)thio-3-isopropyl-7-[4-(2-pyridyl)benzyl]amino-1(2)H-pyrazolo[4,3-d]pyrimidine] | 975 | 668 | 773 |
| CC(C)c1n[nH]c2c(NCc3ccc(-c4ccccn4)cc3)nc(SC(CO)C(C)C)nc12 (stereo not drawn) [Compound 4.21, 5-(1-Hydroxy-3-methyl-2-butyl)thio-3-isopropyl-7-[4-(2-pyridyl)benzyl]amino-1(2)H-pyrazolo[4,3-d]pyrimidine] | 980 | 1000 | 1310 |
| CC(C)c1n[nH]c2c(NCc3ccc(-c4ccccn4)cc3)nc(SCC(N)CN)nc12 (stereo not drawn) [Compound 4.29, 5-(2,3-Diamino-1-propyl)thio-3-isopropyl-7-[4-(2-pyridyl)benzyl]amino-1(2)H-pyrazolo[4,3-d]pyrimidine] | 480 | 780 | 770 |
| CC(C)c1n[nH]c2c(NCc3ccc(-c4ccccn4)cc3)nc(SCC(O)CN)nc12 (racemic) [Compound 4.23, 5-(R/S)-(3-Amino-2-hydroxy-1-propyl)thio-3-isopropyl-7-[4-(2-pyridyl)benzyl]amino-1(2)H-pyrazolo[4,3-d]pyrimidine] | 55 | 55 | 64 |
| CNCCSc1nc(NCc2ccc(-c3ccccn3)cc2)c2[nH]nc(C(C)C)c2n1 [Compound 4.34, 5-(3-Methylamino-1-ethyl)thio-3-isopropyl-7-[4-(2-pyridyl)benzyl]amino-1(2)H-pyrazolo[4,3-d]pyrimidine] | 56 | 92 | 40 |
| CC(C)c1n[nH]c2c(NCc3ccc(-c4ccccn4)cc3)nc(SCCCN)nc12 [Compound 4.27, 5-(3-Amino-1-propyl)thio-3-isopropyl-7-[4-(2-pyridyl)benzyl]amino-1(2)H-pyrazolo[4,3-d]pyrimidine] | 120 | 151 | 156 |
| CC(C)c1n[nH]c2c(NCc3ccc(-c4ccccn4)cc3)nc(SCC(N)=O)nc12 [Compound 4.7, 5-(Carbamoylmethyl)thio-3-isopropyl-7-[4-(2-pyridyl)benzyl]amino-1(2)H-pyrazolo[4,3-d]pyrimidine] | 192 | 163 | 197 |
| CCC(O)CSc1nc(NCc2ccc(-c3ccccn3)cc2)c2[nH]nc(C(C)C)c2n1 (stereo not drawn) [Compound 4.15, 5-(2-Hydroxy-1-butyl)thio-3-isopropyl-7-[4-(2-pyridyl)benzyl]amino-1(2)H-pyrazolo[4,3-d]pyrimidine] | 273 | 280 | 427 |
| CC(C)c1n[nH]c2c(NCc3ccc(-c4ccccn4)cc3)nc(SCC(O)CN3CCOCC3)nc12 (stereo not drawn) [Compound 4.24] | 200 | 200 | 243 |
